From patent publication US8859558B2, “Pyrazinyl carboxamides as fungicides” (Dow AgroSciences, LLC., priority 2010, dated 2014)

Key:
[1] = test system: Cochliobolus sativus (COCHSA); experiment: Fungicidal activity, spot blotch of barley (COCHSA), greenhouse barley plants; format: in vivo; conditions: One-Day Protectant, barley (variety Harrington)
Procedure: Spot Blotch of Barley (Cochliobolus sativus: anamorph Helmithosporium sativum; Bayer code COCHSA): Barley plants (variety Harrington) were grown from seed in a greenhouse in soil-less Metro mix until the first leaf was fully emerged, with 7-10 seedlings per pot. These plants were inoculated with an aqueous spore suspension of COCHSA prior to fungicide treatments. After inoculation the plants were kept in 100% relative humidity one day to permit spores to germinate and infect the leaf. The plants were then transferred to a greenhouse for disease to develop. The following table presents the activity of typical compounds of the present disclosure when evaluated in these experiments. The effectiveness of the test compounds in controlling disease was determined by assessing the severity of disease on treated plants, then converting the severity to percent control based on the level of disease on untreated, inoculated plants. • In each case of Table II the rating scale is as follows: […]

[2] = test system: Mycosphaerella graminicola; anamorph: Septoria tritici (SEPTTR); experiment: Fungicidal activity, leaf blotch of wheat (SEPTTR), greenhouse wheat plants; format: in vivo; conditions: wheat (variety Yuma)
Procedure: Leaf Blotch of Wheat (Mycosphaerella graminicola; anamorph: Septoria tritici; Bayer code […]): Wheat plants (variety Yuma) were grown from seed in a greenhouse in 50% mineral soil/50% soil-less Metro mix until the first leaf was fully emerged, with 7-10 seedlings per pot. These plants were inoculated with an aqueous spore suspension of […] either prior to or after fungicide treatments. After inoculation the plants were kept in 100% relative humidity (one day in a dark dew chamber followed by two to three days in a lighted dew chamber) to permit spores to germinate and infect the leaf. The plants were then transferred to a greenhouse for disease to develop. The following table presents the activity of typical compounds of the present disclosure when evaluated in these experiments. The effectiveness of the test compounds in controlling disease was determined by assessing the severity of disease on treated plants, then converting the severity to percent control based on the level of disease on untreated, inoculated plants. • In each case of Table II the rating scale is as follows: […]

[3] = test system: Puccinia recondita f. sp. tritici (PUCCRT); experiment: Fungicidal activity, wheat leaf rust (PUCCRT), greenhouse wheat plants; format: in vivo; conditions: One-Day Protectant, wheat (variety Yuma)

melting point: 173 to 177 °C
Compound: CC(C)C1C2CCC1c1c(NC(=O)c3nccnc3C(F)(F)F)cccc12 (centres unmarked) [Compound 9, 3-Trifluoromethyl-pyrazine-2-carboxylic acid (9-isopropyl-1,2,3,4-tetrahydro-1,4-methano-naphthalen-5-yl)-amide]
COCHSA 200 PPM 1DP (disease control rating) [1]: A (76-100)
SEPTTR 200 PPM 1DP (disease control rating) ([2]; One-Day Protectant): A (76-100)
SEPTTR 200 PPM 3DC (disease control rating) ([2]; Three-Day Curative): B (51-75)
PUCCRT 200 PPM 1DP (disease control rating) [3]: A (76-100)
